According to patent publication US9617256B2 (priority 2007, dated 2017):
In brackets after ≈: the same amount, converted by molar mass.

Legend:
AECO001 HSA AGP = experiment: MIC broth microdilution, AECO001 HSA AGP; assay type: cell-based, E. coli; conditions: Escherichia coli
Outline: (§1)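 Incubation: 35° C., ambient air, 18-24 h. Medium: cation-adjusted Mueller-Hinton broth with 2-fold serial dilutions of drug. Inoculum: 3×10^5–7×10^5 CFU/mL final, per CLSI microdilution method.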

[1] = tested on: AECO063 (ATCC25922 bearing an acrAB mutation); experiment: microbe, parasite or virus in culture; assay type: cell-based, E. coli; conditions: Escherichia coli, ATCC25922, read-out: MIC AECO063
Outline: as §1

[2] = tested on: APAE006 in the presence of 8 micrograms per milliliter of polymyxin B nonapeptide; assay type: cell-based, P. aeruginosa; conditions: in the presence of 8 micrograms per milliliter of polymyxin B nonapeptide
Outline: (§2)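 CLSI broth microdilution in cation-adjusted Mueller-Hinton broth, final inoculum 3×10^5–7×10^5 CFU/mL, 2-fold drug dilutions, 18-24 hours at 35° C. in ambient air. APAE006 is an efflux-pump-inactivated P. aeruginosa strain. Assay performance monitored with QC strains and levofloxacin.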

[3] = tested on: ASAU001 (laboratory strain of S. aureus, ATCC29213); experiment: MIC broth microdilution, ASAU001; assay type: cell-based; conditions: Staphylococcus aureus, ATCC29213, read-out: MIC ASAU001
Outline: as §1

[4] = tested on: AABA1060 (clinical isolate of Acinetobacter baumannii); experiment: MIC broth microdilution, AABA1060; assay type: cell-based; conditions: Acinetobacter baumannii, read-out: MIC AABA1060
Outline: as §1

APAE001 (ATCC27853) = experiment: MIC broth microdilution, APAE001; assay type: cell-based, P. aeruginosa; conditions: Pseudomonas aeruginosa, ATCC27853, read-out: MIC APAE001, APAE001 is ATCC27853
Outline: as §1

[5] = tested on: APAE006 (strain of P. aeruginosa in which all efflux pumps are inactivated); experiment: microbe, parasite or virus in culture; assay type: cell-based; conditions: Pseudomonas aeruginosa, read-out: MIC APAE006, P. aeruginosa, all efflux pumps inactivated
Outline: as §2

AECO001 (ATCC25922) = experiment: MIC broth microdilution, AECO001; assay type: cell-based, E. coli; conditions: Escherichia coli, ATCC25922, read-out: MIC AECO001
Outline: as §1

Structure (SMILES) | MIC (AECO001 HSA AGP) | MIC [1] | MIC APAE006 + PMBN [2] | MIC [3] | MIC [4] | MIC (APAE001 (ATCC27853)) | MIC [5] | MIC (AECO001 (ATCC25922))
C[C@@H](N)[C@H](NC(=O)c1ccc(C#Cc2ccc(CNS(C)(=O)=O)cc2)cc1)C(=O)NO [Example 131-2] | 16 to 64 µg/mL (≈ 36 to 144 µM) | < 2 µg/mL | A (MIC's of 2.0 μg/mL or less = A) | > 64 µg/mL | 16 to 64 µg/mL (≈ 36 to 144 µM) | < 2 µg/mL | < 2 µg/mL | 2 to 16 µg/mL (≈ 4.5 to 36 µM)
C[C@@H](N)[C@H](NC(=O)c1ccc(C#Cc2ccc(CNC(=N)N)cc2)cc1)C(=O)NO [Example 131-3, N-((1S,2R)-2-Amino-1-hydroxycarbamoyl-propyl)-4-(4-guanidinomethyl-phenylethynyl)-benzamide] | 16 to 64 µg/mL (≈ 39.2 to 157 µM) | 16 to 64 µg/mL (≈ 39.2 to 157 µM) | A (MIC's of 2.0 μg/mL or less = A) | 16 to 64 µg/mL (≈ 39.2 to 157 µM) | 16 to 64 µg/mL (≈ 39.2 to 157 µM) | 2 to 16 µg/mL (≈ 4.9 to 39.2 µM) | < 2 µg/mL | 16 to 64 µg/mL (≈ 39.2 to 157 µM)
C[C@H](NCC(=O)NC[C@H](NC(=O)c1ccc(C#Cc2ccccc2)cc1)C(=O)NO)c1ccccc1 [Example 132-4] | 2 to 16 µg/mL (≈ 4.13 to 33 µM) | < 2 µg/mL | A (MIC's of 2.0 μg/mL or less = A) | 16 to 64 µg/mL (≈ 33 to 132 µM) | 2 to 16 µg/mL (≈ 4.13 to 33 µM) | 2 to 16 µg/mL (≈ 4.13 to 33 µM) | < 2 µg/mL | < 2 µg/mL
C[C@H](N)[C@H](NC(=O)c1ccc(C#Cc2ccccc2)cc1)C(=O)NO [Example 133-1, N-((1S,2S)-2-Amino-1-hydroxycarbamoyl-propyl)-4-phenylethynyl-benzamide] | 2 to 16 µg/mL (≈ 5.93 to 47.4 µM) | < 2 µg/mL | A (MIC's of 2.0 μg/mL or less = A) | 16 to 64 µg/mL (≈ 47.4 to 190 µM) | < 2 µg/mL | < 2 µg/mL | < 2 µg/mL | < 2 µg/mL
C[C@H](N)[C@H](NC(=O)c1ccc(C#Cc2ccc(CN3CCOCC3)cc2)cc1)C(=O)NO [Example 133-2] | 16 to 64 µg/mL (≈ 36.7 to 147 µM) | < 2 µg/mL | A (MIC's of 2.0 μg/mL or less = A) | > 64 µg/mL | 16 to 64 µg/mL (≈ 36.7 to 147 µM) | < 2 µg/mL | < 2 µg/mL | < 2 µg/mL
C[C@H](N)[C@H](NC(=O)c1ccc(C#Cc2ccc(CNC3CC3)cc2)cc1)C(=O)NO [Example 133-3] | 2 to 16 µg/mL (≈ 4.92 to 39.4 µM) | < 2 µg/mL | A (MIC's of 2.0 μg/mL or less = A) | > 64 µg/mL | 16 to 64 µg/mL (≈ 39.4 to 157 µM) | < 2 µg/mL | < 2 µg/mL | < 2 µg/mL
C[C@H](N)[C@H](NC(=O)c1ccc(C#Cc2ccc(CO)cc2)cc1)C(=O)NO [Example 133-4] | 16 to 64 µg/mL (≈ 43.5 to 174 µM) | < 2 µg/mL | A (MIC's of 2.0 μg/mL or less = A) | > 64 µg/mL | > 64 µg/mL | < 2 µg/mL | < 2 µg/mL | 2 to 16 µg/mL (≈ 5.44 to 43.5 µM)
C[C@@H](N)[C@H](NC(=O)c1ccc(C#Cc2cncnc2)cc1)C(=O)NO [Example 133-7] | 2 to 16 µg/mL (≈ 5.89 to 47.1 µM) | < 2 µg/mL | A (MIC's of 2.0 μg/mL or less = A) | 2 to 16 µg/mL (≈ 5.89 to 47.1 µM) | < 2 µg/mL | < 2 µg/mL | < 2 µg/mL | < 2 µg/mL
C[C@@H](N)[C@H](NC(=O)c1ccc(C#Cc2ccncc2)cc1)C(=O)NO [Example 133-8] | 16 to 64 µg/mL (≈ 47.3 to 189 µM) | 2 to 16 µg/mL (≈ 5.91 to 47.3 µM) | A (MIC's of 2.0 μg/mL or less = A) | > 64 µg/mL | 16 to 64 µg/mL (≈ 47.3 to 189 µM) | 2 to 16 µg/mL (≈ 5.91 to 47.3 µM) | < 2 µg/mL | 16 to 64 µg/mL (≈ 47.3 to 189 µM)
C[C@@H](N)[C@H](NC(=O)c1ccc(C#Cc2cccnc2)cc1)C(=O)NO [Example 133-9] | 16 to 64 µg/mL (≈ 47.3 to 189 µM) | 2 to 16 µg/mL (≈ 5.91 to 47.3 µM) | A (MIC's of 2.0 μg/mL or less = A) | > 64 µg/mL | 16 to 64 µg/mL (≈ 47.3 to 189 µM) | 2 to 16 µg/mL (≈ 5.91 to 47.3 µM) | < 2 µg/mL | 16 to 64 µg/mL (≈ 47.3 to 189 µM)
